pEC50: −log10 of the molar value. Read-outs that look alike come from different tables or passages of the source.
Tested on: HCV 1b genotype
Assay: HCV replicon assay (HCV-neo replicon cells, wild-type)
Type: cell-based, Hepatitis C virus
Details: HCV 1b genotype replicon
In short: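 Inhibition was tested in replicon-bearing cells, both wild-type HCV-neo and lines with NS5A resistance substitutions, using the O'Boyle et al. 2005 replicon method or luciferase-reporter formats.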

[1] = Hepatitis C virus, class symbol, read-out: EC50 Range against HCV 1b
[2] = class symbol, read-out: EC50 Range against HCV 1b

SMILES | pEC50 [1] | pEC50 [2] | other results
CCC(=O)N1CCC[C@H]1C(=O)Nc1ccc(-c2cc(-c3ccc(NC(=O)[C@@H]4CCCN4C(=O)CC)cc3)[nH]n2)cc1 [OL-32, (2S,2′S)-N,N′-(1H-pyrazole-3,5-diyldi-4,1-phenylene)bis(1-propionyl-2-pyrrolidinecarboxamide)] | 5.00 to 6.00 | – | –
C[C@H](NC(=O)[C@@H]1CCCO1)C(=O)Nc1ccc(-c2nnc(-c3ccc(NC(=O)[C@H](C)NC(=O)[C@@H]4CCCO4)cc3)o2)cc1 [RK-34, (2S,2′S)-N,N′-(1,3,4-oxadiazole-2,5-diylbis(4,1-phenyleneimino((2S)-1-oxo-1,2-propanediyl)))ditetrahydro-2-furancarboxamide] | – | – | pEC50 (class symbols, read-out: EC50 Range against HCV 1b): 5.00 to 6.00
O=C(Nc1ccc(-c2ncc(-c3ccc(NC(=O)[C@@H]4CCCN4C(=O)C4CC4)cc3)o2)cc1)C1CCCN1C(=O)C1CC1 (stereo in doubt) [JG-7, (2S,2′S)-N,N′-(1,3-oxazole-2,5-diyldi-4,1-phenylene)bis(1-(cyclopropylcarbonyl)-2-pyrrolidinecarboxamide)] | 6.00 to 7.00 | – | –
CCOC(=O)c1cc(C(O)C(=O)N2CCC[C@H]2C(=O)Nc2ccc(-c3cnc(-c4ccc(NC(=O)[C@@H]5CCCN5C(=O)C(O)c5c[nH]c(C(=O)OCC)c5)cc4)o3)cc2)c[nH]1 (stereo partly drawn) [Example D-12, diethyl 4,4′-(2,2′-(2S,2′S)-2,2′-(4,4′-(oxazole-2,5-diyl)bis(4,1-phenylene))bis(azanediyl)bis(oxomethylene)bis(pyrrolidine-2,1-diyl)bis(1-hydroxy-2-oxoethane-2,1-diyl))bis(1H-pyrrole-2-carboxylate)] | – | 5.00 to 6.00 | pEC50 (read-out: EC50 1b): 5.63
CC(C)(C)OC(=O)N1C(C(=O)N2CCCC2C(=O)Nc2ccc(-c3cnc(-c4ccc(NC(=O)C5CCCN5C(=O)C5CC6CC6N5C(=O)OC(C)(C)C)cc4)o3)cc2)CC2CC21 [Example D-31, di-tert-butyl (1S,3S,5S,1′S,3′S,5′S)-3,3′-(1,3-oxazole-2,5-diylbis(4,1-phenylenecarbamoyl(2S)-2,1-pyrrolidinediylcarbonyl))bis(2-azabicyclo[3.1.0]hexane-2-carboxylate)] | – | 5.00 to 6.00 | –
CCCC(C)C(=O)N1CCC[C@H]1C(=O)Nc1ccc(-c2cnc(-c3ccc(NC(=O)[C@@H]4CCCN4C(=O)C(C)CCC)cc3)o2)cc1 (stereo partly drawn) [XY-9, (2S,2′S)-N,N′-(1,3-oxazole-2,5-diyldi-4,1-phenylene)bis(1-(2-methylpentanoyl)-2-pyrrolidinecarboxamide)] | – | – | pEC50 (Hepatitis C virus, class symbols, read-out: EC50 Range against HCV 1b): 6.00 to 7.00
C[C@H](NC(=O)OCc1ccccc1)C(=O)Nc1ccc(-c2nc[nH]c2-c2ccc(NC(=O)[C@H](C)NC(=O)OCc3ccccc3)cc2)cc1 [OL-8, [1H-imidazole-4,5-diylbis[4,1-phenyleneimino[(1S)-1-methyl-2-oxo-2,1-ethanediyl]]]bis-carbamic acid, bis(phenylmethyl) ester] | 7.00 to 8.34 | – | –
O=C(Nc1ccc(-c2cnc(-c3ccc(NC(=O)[C@@H]4C[C@@H]5C[C@@H]5N4C(=O)[C@H](O)c4ccccc4)cc3)o2)cc1)[C@@H]1C[C@@H]2C[C@@H]2N1C(=O)[C@H](O)c1ccccc1 [CB-6, (1S,3S,5S,1′S,3′S,5′S)-N,N′-(1,3-oxazole-2,5-diyldi-4,1-phenylene)bis(2-((2R)-2-hydroxy-2-phenylacetyl)-2-azabicyclo[3.1.0]hexane-3-carboxamide)] | – | > 8.34 | –
O=C(Nc1ccc(-c2nc[nH]c2-c2ccc(NC(=O)[C@@H]3CCCN3C(=O)c3nc(Cl)cc4ccccc34)cc2)cc1)[C@@H]1CCCN1C(=O)c1nc(Cl)cc2ccccc12 [JG-49, (2S,2′S)-N,N′-(1H-imidazole-4,5-diyldi-4,1-phenylene)bis(1-((3-chloro-1-isoquinolinyl)carbonyl)-2-pyrrolidinecarboxamide)] | 5.00 to 6.00 | – | –
C[C@H](NC(=O)Cc1ccccc1)C(=O)Nc1ccc(-c2nnc(-c3ccc(NC(=O)[C@H](C)NC(=O)Cc4ccccc4)cc3)o2)cc1 [RK-23, (2S,2′S)-N,N′-(1,3,4-oxadiazole-2,5-diyldi-4,1-phenylene)bis(2-((phenylacetyl)amino)propanamide)] | 6.00 to 7.00 | – | –

Source: US8735398B2 (Bristol-Myers Squibb Company, priority 2009, dated 2014)
